Measured values: ChEMBL document CHEMBL6103619, “Discovery of a Novel CRBN-Recruiting cGAS PROTAC Degrader for the Treatment of Ulcerative Colitis” (J Med Chem, 2025)
Calls of active or inactive are those of the source. The calls are words filed in the database; no cut-off is given here.

Columns and labels:
[1] = Cytotoxicity against mouse RAW-Lucia ISG cells assessed as reduction in cell viability upto 60 uM incubated for 48 hrs by CCK8 assay; assay type: toxicity, cell-based
[2] = (§1) Inhibition of dsDNA-induced cGAS signaling pathway in human THP1-Lucia ISG cells preincubated with compound for 24 hrs followed by HT-DNA addition and measured after 24 hrs by QUANTI-Luc luciferase reagent based assay; assay type: cell-based
THP1-Lucia ISG = assay: as §1; assay type: cell-based; conditions: time 48.0 hrs
RAW264.7 [3] = assay: Inhibition of ds-DNA induced cGAS-STING signaling pathway in mouse RAW264.7 cells assessed as reduction in STING phosphorylation preincubated with compound for 40 hrs followed by HT-DNA addition and measured after 8 hrs by Western blot analysis; assay type: cell-based; conditions: dose 0.7-20 µM, time 48.0 hrs
[4] = AUC (0 to infinity) in male C57BL/6 mouse at 20 mg/kg, ip measured after 24 hrs by LC-MS/MS analysis; assay type: ADME, organism-based; conditions: in vivo
[5] = Clearance in male C57BL/6 mouse at 1 mg/kg, iv measured after 24 hrs by LC-MS/MS analysis; assay type: ADME, organism-based; conditions: in vivo
Mus musculus = assay: Anti-inflammatory activity in DSS-induced ulcerative colitis C57BL/6 mouse model assessed as reduction in TNF-alpha mRNA level in colon at 20 to 50 mg/kg/day, ip preadministered with DSS for 7 days followed by replacement with ultrapure water for 3 days with subsequent compound administration starting from day 4 to 10 and measured on day 11 by qRT-PCR analysis; assay type: functional, organism-based; conditions: dose 20-50 mg/kg/day, time 8.0 day
[6] = MRT (0 to 24 hrs) in male C57BL/6 mouse at 1 mg/kg, iv measured after 24 hrs by LC-MS/MS analysis; assay type: ADME, organism-based; conditions: in vivo
RAW264.7 [7] = assay: Inhibition of ds-DNA induced cGAS-STING signaling pathway in mouse RAW264.7 cells assessed as reduction in TBK1 phosphorylation preincubated with compound for 40 hrs followed by HT-DNA addition and measured after 8 hrs by Western blot analysis; assay type: cell-based; conditions: dose 0.7-20 µM, time 48.0 hrs
[8] = biological target: Protein cereblon/Cyclic GMP-AMP synthase (Mus musculus) (UniProt Q8C6L5+Q8C7D2); assay: In vivo inhibition of cGAS signaling pathway in DSS-induced ulcerative colitis C57BL/6 mouse model assessed as reduction in STING phosphorylation level in colon preadministered with DSS for 7 days followed by replacement with ultrapure water for 3 days with subsequent intraperitoneal compound administration starting from day 4 to 10 and measured on day 11 by Western blot analysis; assay type: functional, organism-based; conditions: dose 20-50 mg/kg/day, route ip, time 8.0 day
[9] = Cmax in male C57BL/6 mouse at 20 mg/kg, ip measured after 24 hrs by LC-MS/MS analysis; assay type: ADME, organism-based; conditions: in vivo
THP-1 = assay: Cytotoxicity against human THP-1 cells assessed as reduction in cell viability upto 60 uM incubated for 48 hrs by CCK8 assay; assay type: toxicity, cell-based; conditions: thp-1, 48 h
[10] = Volume of distribution in male C57BL/6 mouse at 1 mg/kg, iv measured after 24 hrs by LC-MS/MS analysis; assay type: ADME, organism-based; conditions: in vivo

Chain of Protein cereblon/Cyclic GMP-AMP synthase (Mus musculus) (Q8C6L5 whole entry, looked up): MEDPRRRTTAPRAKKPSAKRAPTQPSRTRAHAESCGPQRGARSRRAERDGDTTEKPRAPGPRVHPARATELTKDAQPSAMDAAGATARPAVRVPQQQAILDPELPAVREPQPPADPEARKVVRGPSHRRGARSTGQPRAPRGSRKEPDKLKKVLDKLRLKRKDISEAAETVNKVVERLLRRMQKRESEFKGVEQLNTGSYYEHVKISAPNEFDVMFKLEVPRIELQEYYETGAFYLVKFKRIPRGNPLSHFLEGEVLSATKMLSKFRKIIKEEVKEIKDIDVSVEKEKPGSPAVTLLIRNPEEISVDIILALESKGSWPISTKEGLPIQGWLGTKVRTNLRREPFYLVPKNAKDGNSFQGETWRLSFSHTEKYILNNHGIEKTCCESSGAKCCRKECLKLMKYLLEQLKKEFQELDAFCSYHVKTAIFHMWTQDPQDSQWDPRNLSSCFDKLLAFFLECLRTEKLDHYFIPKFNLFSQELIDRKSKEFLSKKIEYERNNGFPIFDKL
Chain of Protein cereblon/Cyclic GMP-AMP synthase (Mus musculus) (Q8C7D2 whole entry, looked up): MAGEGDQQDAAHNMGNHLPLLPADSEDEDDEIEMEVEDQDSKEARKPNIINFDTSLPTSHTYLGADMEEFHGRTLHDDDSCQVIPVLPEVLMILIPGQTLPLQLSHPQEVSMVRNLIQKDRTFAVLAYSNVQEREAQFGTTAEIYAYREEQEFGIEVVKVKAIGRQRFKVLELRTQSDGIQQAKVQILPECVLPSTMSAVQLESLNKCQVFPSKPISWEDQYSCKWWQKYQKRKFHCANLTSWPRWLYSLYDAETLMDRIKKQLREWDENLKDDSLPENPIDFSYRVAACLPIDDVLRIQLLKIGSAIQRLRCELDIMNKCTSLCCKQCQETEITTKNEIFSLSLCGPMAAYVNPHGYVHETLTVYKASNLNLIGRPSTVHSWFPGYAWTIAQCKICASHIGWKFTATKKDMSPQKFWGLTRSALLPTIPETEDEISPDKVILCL

IC50 [2]: 1800 nM
AUC(0-inf) [4]: 2800 ng·h/mL
clearance [5]: 31.7 mL/min/kg
MRT last at 24 h [6]: 54 min
Cmax [9]: 248 ng/mL
Vd [10]: 8.1 L/kg
Compound: Cn1ccc(-c2cc(Cl)c(Cl)c3[nH]c4c(c23)CN(C(=O)CNC(=O)CCCC#Cc2cccc3c2CN(C2CCC(=O)NC2=O)C3=O)CC4)n1 (stereo not drawn)
Activity [1]: Non-toxic
inhibition (THP1-Lucia ISG): Dose-dependent-effect
inhibition (RAW264.7 [3]): Dose-dependent-effect
Activity (Mus musculus): Active
inhibition (RAW264.7 [7]): Dose-dependent-effect
inhibition [8]: Dose-dependent-effect
Activity (THP-1): Non-toxic
